Patent US20060247249A1 (priority 2005, published 2006)
pKi: −log10 of the molar value. Where a name gives a salt, the structure may show the parent alone.

Tests used:
[1] = biological target: T1, α1A adrenoceptor (Rattus norvegicus, UniProt P43140); test: Radioligand binding, [3H] prazosin displacement, rat submaxillary membranes; settings: for pKi: [3H] prazosin displacement, rat submaxillary membranes, read-out: Affinity for α1A (Rat Submaxillary), Ki; for α1B/α1A: ratio of binding affinities, rat liver vs rat submaxillary
T1 construct: from tissue; host or cells: rat submaxillary gland membranes
T1 sequence (P43140 1-466): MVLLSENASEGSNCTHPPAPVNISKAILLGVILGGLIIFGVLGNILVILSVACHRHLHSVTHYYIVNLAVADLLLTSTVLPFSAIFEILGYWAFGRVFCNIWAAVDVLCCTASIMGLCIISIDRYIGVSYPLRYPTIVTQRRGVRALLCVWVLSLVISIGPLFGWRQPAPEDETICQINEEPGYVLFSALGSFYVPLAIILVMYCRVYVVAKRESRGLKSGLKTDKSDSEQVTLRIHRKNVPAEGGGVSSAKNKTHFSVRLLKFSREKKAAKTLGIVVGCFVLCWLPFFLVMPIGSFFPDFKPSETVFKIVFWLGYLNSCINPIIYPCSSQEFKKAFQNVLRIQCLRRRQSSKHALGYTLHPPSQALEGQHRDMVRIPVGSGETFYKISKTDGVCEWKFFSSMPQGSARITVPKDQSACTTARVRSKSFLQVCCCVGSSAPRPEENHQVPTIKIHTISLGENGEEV
Procedure: (§1) Receptor binding assays were performed using native α-adrenoceptors. The affinity of different compounds for α1A and α1B adrenoceptor subtypes was evaluated by studying their ability to displace specific [^3H] prazosin binding from the membranes of rat submaxillary and liver respectively (Michel et al, Br J. Pharmacol.; 1989; 98:883). The binding assays were performed according to U'Prichard et al. (Eur J Pharmacol., 1978; 50:87) with minor modifications.
(§2) Submaxillary glands were isolated immediately after sacrifice. The liver was perfused with buffer (Tris HCl 50 mM, NaCl 100 mM, 10 mM EDTA pH 7.4). The tissues were homogenised in 10 volumes of buffer (Tris HCl 50 mM, NaCl 100 mM, 10 mM EDTA pH 7.4). The homogenate was filtered through two layers of wet gauge and filtrate was centrifuged at 500 g for 10 min. The supernatant was subsequently centrifuged at 40,000 g for 45 min. The pellet thus obtained was resuspended in the same volume of assay buffer (Tris HCl 50 mM, 5 mM EDTA pH 7.4) and were stored at −70° C. until the time of assay.
(§3) The membrane homogenates (150-250 μg protein) were incubated in 250 μl of assay buffer (Tris HCl 50 mM, EDTA 5 mM, pH 7.4) at 24-25° C. for 1 hour. Non specific binding was determined in the presence of 300 nM prazosin. The incubation was terminated by vacuum filtration over GF/B fibre filters. The filters were then washed with ice cold 50 mM Tris HCl buffer (pH 7.4). The filtermats were dried and bound radioacivity retained on filters was counted. The IC50 and Kd were estimated by using the non linear curve fitting program using G Pad Prism software. The value of inhibition constant Ki was calculated from competitive binding studies by using Cheng & Prusoff equation (Cheng & Prusoff, Biochem Pharmacol, 1973,22: 3099), Ki=IC50/(1+L/Kd) where L is the concentration of [^3H] prazosin used in the particular experiment (Table I).

[2] = biological target: T2, α1B adrenoceptor (Rattus norvegicus, UniProt P15823); test: Radioligand binding, [3H] prazosin displacement, rat liver membranes; settings: read-out: Affinity for α1B (Rat Liver), Ki
T2 construct: from tissue; host or cells: rat liver membranes
T2 sequence (P15823 1-515): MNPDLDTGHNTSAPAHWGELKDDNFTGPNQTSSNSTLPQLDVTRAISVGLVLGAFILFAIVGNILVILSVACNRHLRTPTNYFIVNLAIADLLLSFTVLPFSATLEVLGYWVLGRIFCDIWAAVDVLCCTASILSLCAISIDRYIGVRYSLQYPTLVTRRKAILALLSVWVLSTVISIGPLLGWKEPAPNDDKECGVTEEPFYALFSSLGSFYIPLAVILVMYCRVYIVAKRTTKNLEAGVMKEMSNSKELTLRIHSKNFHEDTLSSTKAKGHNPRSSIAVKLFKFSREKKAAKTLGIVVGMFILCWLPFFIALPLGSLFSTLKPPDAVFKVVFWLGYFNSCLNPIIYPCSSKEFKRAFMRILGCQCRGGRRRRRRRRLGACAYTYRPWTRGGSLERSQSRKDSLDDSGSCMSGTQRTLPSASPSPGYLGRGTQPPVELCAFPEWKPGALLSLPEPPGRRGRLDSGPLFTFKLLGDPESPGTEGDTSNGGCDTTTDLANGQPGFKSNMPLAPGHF
Procedure: as §1, §2, §3

[3] = biological target: T3, prostate (α1A) (Rattus norvegicus, UniProt P43140); test: In vitro functional study, isolated rat prostate, antagonism of phenylepinephrine contraction; type: biochemical
T3 construct: from tissue; host or cells: isolated rat prostate (male Wistar)
T3 sequence (P43140 1-466): T1 sequence (P43140 1-466)
Description: (§4) In order to study selectivity of action of these compounds towards different α-adrenoceptor subtypes, the ability of these compounds to antagonise aorta (α1D), prostate (α1A) and spleen (α1B) was studied. Aorta, prostrate and spleen tissues were isolated from urethane anaesthetized (1.5 g/kg) male wister rats. Isolated tissues were mounted in organ bath containing Krebs Henseleit buffer of the following composition (mM): NaCl 118; KCl 4.7; CaCl2 2.5; MgSO4 7H2O 1.2; NaHCO3 25; KH2PO4 1.2; glucose 11.5. Buffer was maintained at 37° C. and aereated with a mixture of 95% O2 and 5% CO2. A resting tension of 2 g (aorta) or 1 g (spleen and prostate) was applied to tissues. Contractile response was monitored using a force displacement transducer and recorded on chart recorders. Tissues were allowed to equilibrate for 2 hours. At the end of equilibration period, concentration response curves to norepinephrine (aorta) and phenylepinephrine (spleen and prostate) were obtained in the absence and presence of tested compound (at concentration of 0.1, 1 and 10 μM). Antagonist affinity was calculated and expressed as pKB values in Table II.

[4] = biological target: T4, spleen (α1B) (Rattus norvegicus, UniProt P15823); test: In vitro functional study, isolated rat spleen, antagonism of phenylepinephrine contraction; type: biochemical; settings: compound at 0.1, 1 and 10 μM
T4 construct: from tissue; host or cells: isolated rat spleen (male Wistar)
T4 sequence (P15823 1-515): T2 sequence (P15823 1-515)
Description: as §4

[5] = biological target: T5, aorta (α1D) (Rattus norvegicus, UniProt P23944); test: In vitro functional study, isolated rat aorta, antagonism of norepinephrine contraction; type: biochemical; settings: compound at 0.1, 1 and 10 μM
T5 construct: Isolated tissues were mounted in organ bath containing Krebs Henseleit buffer; from tissue; host or cells: isolated rat aorta (male Wistar)
T5 sequence (P23944 1-561): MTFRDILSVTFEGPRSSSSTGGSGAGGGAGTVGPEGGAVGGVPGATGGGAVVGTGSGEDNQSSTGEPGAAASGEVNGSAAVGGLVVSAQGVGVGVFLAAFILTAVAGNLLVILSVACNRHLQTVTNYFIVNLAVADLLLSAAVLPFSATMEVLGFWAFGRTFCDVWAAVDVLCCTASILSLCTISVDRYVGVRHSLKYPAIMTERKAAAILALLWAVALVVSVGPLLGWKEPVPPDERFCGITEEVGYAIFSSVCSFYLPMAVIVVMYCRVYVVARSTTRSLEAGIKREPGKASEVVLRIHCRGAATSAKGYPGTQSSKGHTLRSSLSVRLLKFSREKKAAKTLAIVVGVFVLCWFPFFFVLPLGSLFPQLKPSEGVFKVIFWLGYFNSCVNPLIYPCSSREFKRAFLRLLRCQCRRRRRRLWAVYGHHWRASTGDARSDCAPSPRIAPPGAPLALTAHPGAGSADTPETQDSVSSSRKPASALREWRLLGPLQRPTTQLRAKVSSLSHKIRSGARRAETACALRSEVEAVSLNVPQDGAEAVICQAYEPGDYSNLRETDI
Description: as §4

[6] = biological target: α1-adrenoceptor; settings: background statement; cited from earlier work

Compound | pKi [1] | α1B/α1A [1] | pKi [2] | Selectivity α1D/α1A ([3]; functional assays, aorta vs prostate) | Selectivity α1B/α1A ([3]; functional assays, spleen vs prostate) | α1A (pKB) ([3]; rat prostate, phenylepinephrine, compound at 0.1, 1 and 10 μM) | α1B (pKB) [4] | α1D (pKB) [5] | α1-adrenergic blocking activity (pKi) [6]
CC(C)Oc1ccccc1N1CCN(CCCNC(=O)CCCC(=O)O)CC1 | 6.11 | 3 | 5.68 |  |  |  |  |  | 
CC(C)Oc1ccccc1N1CCN(CCCNC(=O)C2CC=CCC2C(=O)O)CC1 (centres unmarked) [Compound No. 2, 1-Carboxy cyclohex-4-ene-2-[N-{3-(2-isopropoxyphenyl)piperazin-1-yl}propyl]carboxamide] | 7.72 | >53 | < 6.00 |  |  |  |  |  | 
COc1ccccc1N1CCN(CC(O)CNC(=O)C2CC=CCC2C(=O)O)CC1 (centres unmarked) [Compound No. 3] | < 6.00 |  | < 6.00 |  |  |  |  |  | 
O=C(O)C1CC=CCC1C(=O)NCC(O)CN1CCN(c2ccccc2O)CC1 (centres unmarked) [Compound No. 4] | 5.72 | 5 | 5.01 |  |  |  |  |  | 
CC(C)Oc1ccccc1N1CCN(CC(O)CNC(=O)C2CC=CCC2C(=O)O)CC1 (centres unmarked) [Compound No. 5, 1-Carboxy cyclohex-4-ene-2-[N-{3-(2-isopropoxyphenyl)piperazin-1-yl}-2-hydroxypropyl]carboxamide] | 7.68 | 84 | 5.75 |  |  |  |  |  | 
COc1ccccc1N1CCN(CC(O)CNC(=O)CCCC(=O)O)CC1 (centres unmarked) [Compound No. 12] | < 6.00 | 1 | < 5.00 |  |  |  |  |  | 
COC(=O)CCCC(=O)NCCCN1CCN(c2ccccc2OC)CC1 [hydrochloride] | 6.86 | >7 | < 6.00 |  |  |  |  |  | 
COc1cc2nc(N3CCN(C(=O)c4ccco4)CC3)nc(N)c2cc1OC [prazosin] |  |  |  |  |  |  |  |  | > 8

More lines, main results first:

pKi [1] | α1B/α1A [1] | pKi [2] | Selectivity α1D/α1A ([3]; functional assays, aorta vs prostate) | Selectivity α1B/α1A ([3]; functional assays, spleen vs prostate) | α1A (pKB) ([3]; rat prostate, phenylepinephrine, compound at 0.1, 1 and 10 μM) | α1B (pKB) [4] | α1D (pKB) [5] | Compound | α1-adrenergic blocking activity (pKi) [6]
6.40 | 3 | 5.91 |  |  |  |  |  | 1-Carboxy cyclohex-4-ene-2-[N-{3-(2-ethoxyphenyl)piperazin-1yl}-2-hydroxyphenyl]carboxamide [Compound No. 6] | 
7.70 | >50 | < 6.00 | 9.5 | 1.15 | 8.22 | 8.16 | 7.24 | 1-Carboxycyclohex-4-ene-2-[N-{3-(2-ethoxyphenyl)piperazin-1-yl}propyl]carboxamide [Compound No. 1] | 
8.50 | 31 | 7.00 |  |  |  |  |  | 1-Carboxymethylcyclohex-4-ene-2-[N-{3-(2-isopropoxyphenyl)piperazin-1-yl}-propyl]carboxamide hydrochloride [Compound No. 11] | 
4.90 | 1 | 4.89 |  |  |  |  |  | O=C(O)CCCC(=O)NCCCN1CCN(c2ccccc2O)CC1 [Compound No. 7, 5-[N-{3-(2-hydroxyphenyl)piperazin-1-yl}]-1-aminopropyl-5-oxo-pentan-1-oic acid] | 
6.23 | 9 | 5.29 |  |  |  |  |  | O=C(O)C1CC=CCC1C(=O)NCCCN1CCN(c2ccccc2O)CC1 (centres unmarked) [Compound No. 8, 1-Carboxy cyclohex-4-ene-2-[N-{3-(2-hydroxyphenyl)piperazin-1-yl}propyl]carboxamide] | 
